What follows are molecules tested against T1, human IKK-2 (rhIKK-2 homodimer) (Homo sapiens, UniProt O14920) (assay: IKK-2 Resin Enzyme Assay (Human IKK-2 Enzyme Assay)). Details: human IKK-2, resin enzyme assay; read-out: IC50 (μM) hIKK-2.
T1 construct: FLAG (DYKDDDDKD) (C); made in house; host or cells: insect cells (baculovirus, pFastBac)
T1 sequence (O14920 1-756): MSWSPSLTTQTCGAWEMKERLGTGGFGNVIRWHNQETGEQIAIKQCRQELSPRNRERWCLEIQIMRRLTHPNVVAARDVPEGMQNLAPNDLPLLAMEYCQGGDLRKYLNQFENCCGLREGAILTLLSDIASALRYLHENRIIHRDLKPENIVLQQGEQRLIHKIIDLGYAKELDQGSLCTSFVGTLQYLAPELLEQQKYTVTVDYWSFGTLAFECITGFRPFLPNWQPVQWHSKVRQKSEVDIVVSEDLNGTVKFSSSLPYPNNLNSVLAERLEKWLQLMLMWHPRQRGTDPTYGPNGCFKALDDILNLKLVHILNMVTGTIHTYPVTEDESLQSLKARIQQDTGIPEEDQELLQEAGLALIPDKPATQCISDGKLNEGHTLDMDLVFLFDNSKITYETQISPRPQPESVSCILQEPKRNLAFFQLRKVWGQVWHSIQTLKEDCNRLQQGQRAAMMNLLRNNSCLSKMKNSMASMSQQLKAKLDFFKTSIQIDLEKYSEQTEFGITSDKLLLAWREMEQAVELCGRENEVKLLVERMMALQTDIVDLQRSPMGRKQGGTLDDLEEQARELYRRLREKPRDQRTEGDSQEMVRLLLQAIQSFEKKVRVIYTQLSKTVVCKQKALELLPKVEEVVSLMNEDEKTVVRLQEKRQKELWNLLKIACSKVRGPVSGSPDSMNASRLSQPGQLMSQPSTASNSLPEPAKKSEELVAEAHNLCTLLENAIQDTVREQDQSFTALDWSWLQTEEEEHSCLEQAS
Assay type: biochemical
Outline: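 C-terminally FLAG-tagged human IKK-2 homodimer, baculovirus-expressed in insect cells and anti-FLAG purified. Reaction mix: 5 μM biotinylated IκBα peptide (Ser32/Ser36 region), 1 μM ATP with [γ-33P]ATP, 2 mM MgCl2, 2 mM MnCl2, 10 mM NaF, 1 mM DTT, 25 mM HEPES pH 7.6. Incubated 30 min at 25 °C; IC50 derived.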

| SMILES | IC50 [µM] |
| --- | --- |
| COC(=O)c1ccc(-n2cc(NC(N)=O)c(C(N)=O)n2)cc1 [Example 184, methyl 4-{3-(aminocarbonyl)-4-[(aminocarbonyl)amino]-1H-pyrazol-1-yl}benzoate] | 5.49 |
| COC(=O)c1cccc(-n2cc(NC(N)=O)c(C(N)=O)n2)c1 [Example 185, methyl 3-{3-(aminocarbonyl)-4-[(aminocarbonyl)amino]-1H-pyrazol-1-yl}benzoate] | 5.88 |
| NC(=O)Nc1cn(-c2ccc([S+]([O-])C3CCCCC3)cc2)nc1C(N)=O (stereo not shown) [Example 191, 1-(3-carbamoyl-1-(4-(cyclohexylsulfinyl)phenyl)-1H-pyrazol-4-yl)urea] | 2.54 |
| NC(=O)Nc1cn(-c2ccc([S+]([O-])c3ccccc3F)cc2)nc1C(N)=O (stereo not shown) [Example 193, 1-(1-(4-(2-fluorophenylsulfinyl)phenyl)-3-carbamoyl-1H-pyrazol-4-yl)urea] | 3.75 |
| NC(=O)Nc1cn(-c2cccc(Sc3ccccc3F)c2)nc1C(N)=O [Example 198, 1-(1-(3-(2-fluorophenylthio)phenyl)-3-carbamoyl-1H-pyrazol-4-yl)urea] | 6.52 |
| NC(=O)Nc1cn(-c2ccc(Sc3ccc(O)cc3)cc2)nc1C(N)=O [Example 199, 1-(1-(4-(4-hydroxyphenylthio)phenyl)-3-carbamoyl-1H-pyrazol-4-yl)urea] | 6.56 |
| NC(=O)Nc1cn(-c2cccc([S+]([O-])c3ccccc3F)c2)nc1C(N)=O (stereo not shown) [Example 202, 1-(1-(3-(2-fluorophenylsulfinyl)phenyl)-3-carbamoyl-1H-pyrazol-4-yl)urea] | 5.97 |
| NC(=O)Nc1cn(-c2ccc(SC3CCCC3)cc2)nc1C(N)=O [Example 207, 1-(3-carbamoyl-1-(4-(cyclopentylthio)phenyl)-1H-pyrazol-4-yl)urea] | 1.32 |
| NC(=O)Nc1cn(-c2ccc(Sc3ccccc3F)cc2F)nc1C(N)=O [Example 211, 1-(1-(4-(2-fluorophenylthio)-2-fluorophenyl)-3-carbamoyl-1H-pyrazol-4-yl)urea] | 10.5 |
| NC(=O)Nc1cn(-c2ccc3c(c2)OCO3)nc1C(N)=O [Example 213, 4-[(aminocarbonyl)amino]-1-(1,3-benzodioxol-5-yl)-1H-pyrazole-3-carboxamide] | 3.91 |
| N#CCOc1cccc(-c2ccc(-n3cc(NC(N)=O)c(C(N)=O)n3)cc2Cl)c1 [Example 220, 4-[(aminocarbonyl)amino]-1-[2-chloro-3′-(cyanomethoxy)-1,1′-biphenyl-4-yl]-1H-pyrazole-3-carboxamide] | 1.57 |
| NC(=O)Nc1cn(-c2ccc(Sc3ccc(F)cc3)c(Cl)c2)nc1C(N)=O [Example 221, 4-[(aminocarbonyl)amino]-1-{3-chloro-4-[(4-fluorophenyl)thio]phenyl}-1H-pyrazole-3-carboxamide] | 2.6 |
| NC(=O)Nc1cn(-c2ccc(S(=O)(=O)c3ccc(F)cc3)c(Cl)c2)nc1C(N)=O [Example 222, 4-[(aminocarbonyl)amino]-1-{3-chloro-4-[(4-fluorophenyl)sulfonyl]phenyl}-1H-pyrazole-3-carboxamide] | > 20 |
| N#CCOc1cccc(-c2ccc(-n3cc(NC(N)=O)c(C(N)=O)n3)cc2F)c1 [Example 227, 4-[(aminocarbonyl)amino]-1-[3′-(cyanomethoxy)-2-fluoro-1,1′-biphenyl-4-yl]-1H-pyrazole-3-carboxamide] | 1.53 |
| Cc1cc(Sc2ccc(F)cc2)ccc1-n1cc(NC(N)=O)c(C(N)=O)n1 [Example 228, 4-[(aminocarbonyl)amino]-1-{4-[(4-fluorophenyl)thio]-2-methylphenyl}-1H-pyrazole-3-carboxamide] | > 20 |
| Cc1cc(S(=O)(=O)c2ccc(F)cc2)ccc1-n1cc(NC(N)=O)c(C(N)=O)n1 [Example 229, 4-[(aminocarbonyl)amino]-1-{4-[(4-fluorophenyl)sulfonyl]-2-methylphenyl}-1H-pyrazole-3-carboxamide] | 2.19 |
| CCOc1cc(-n2cc(NC(N)=O)c(C(N)=O)n2)ccc1-c1cccc(O)c1 [Example 230, 4-[(aminocarbonyl)amino]-1-(2-ethoxy-3′-hydroxy-1,1′-biphenyl-4-yl)-1H-pyrazole-3-carboxamide] | 2.02 |

More lines, in order of falling IC50, values ahead:

| IC50 [µM] | SMILES |
| --- | --- |
| 1.31 | NC(=O)Nc1cn(-c2ccc(F)c(F)c2)nc1C(N)=O [Example 218, 4-[(aminocarbonyl)amino]-1-(3,4-difluorophenyl)-1H-pyrazole-3-carboxamide] |
| 1.15 | NC(=O)Nc1cn(-c2ccc(-c3ccccc3O)c(Cl)c2)nc1C(N)=O [Example 223, 4-[(aminocarbonyl)amino]-1-(2-chloro-2′-hydroxy-1,1′-biphenyl-4-yl)-1H-pyrazole-3-carboxamide] |
| 1.06 | NC(=O)Nc1cn(-c2ccc(-c3cccc(O)c3)c(F)c2)nc1C(N)=O [Example 226, 4-[(aminocarbonyl)amino]-1-(2-fluoro-3′-hydroxy-1,1′-biphenyl-4-yl)-1H-pyrazole-3-carboxamide] |
| 1.04 | NC(=O)Nc1cn(-c2ccc(SC3CCCCC3)cc2)nc1C(N)=O [Example 189, 1-(3-carbamoyl-1-(4-(cyclohexylthio)phenyl)-1H-pyrazol-4-yl)urea] |
| 0.844 | NC(=O)Nc1cn(-c2ccc(F)cc2)nc1C(N)=O [Example 212, 4-[(aminocarbonyl)amino]-1-(4-fluorophenyl)-1H-pyrazole-3-carboxamide] |
| 0.831 | NC(=O)Nc1cn(-c2ccc(Sc3ccccc3F)cc2)nc1C(N)=O [Example 190, 1-(1-(4-(2-fluorophenylthio)phenyl)-3-carbamoyl-1H-pyrazol-4-yl)urea] |
| 0.718 | NC(=O)Nc1cn(-c2ccc(Sc3ccc(F)cc3)cc2)nc1C(N)=O [Example 196, 1-(1-(4-(4-fluorophenylthio)phenyl)-3-carbamoyl-1H-pyrazol-4-yl)urea] |
| 0.561 | NC(=O)Nc1cn(-c2ccc(Sc3cccc(F)c3)cc2)nc1C(N)=O [Example 197, 1-(1-(4-(3-fluorophenylthio)phenyl)-3-carbamoyl-1H-pyrazol-4-yl)urea] |
| 0.532 | NC(=O)Nc1cn(-c2ccc([S+]([O-])c3cccc(F)c3)cc2)nc1C(N)=O (stereo not shown) [Example 201, 1-(1-(4-(3-fluorophenylsulfinyl)phenyl)-3-carbamoyl-1H-pyrazol-4-yl)urea] |
| 0.46 | NC(=O)Nc1cn(-c2ccc(Cl)c(Cl)c2)nc1C(N)=O [Example 188, 4-[(aminocarbonyl)amino]-1-(3,4-dichlorophenyl)-1H-pyrazole-3-carboxamide] |
| 0.387 | NC(=O)Nc1cn(-c2cccc(I)c2)nc1C(N)=O [Example 195, 1-(3-carbamoyl-1-(3-iodophenyl)-1H-pyrazol-4-yl)urea] |
| 0.382 | NC(=O)Nc1cn(-c2ccc(Cl)cc2)nc1C(N)=O [Example 214, 4-[(aminocarbonyl)amino]-1-(4-chlorophenyl)-1H-pyrazole-3-carboxamide] |
| 0.328 | NC(=O)Nc1cn(-c2ccc(Sc3ccccc3O)cc2)nc1C(N)=O [Example 208, 1-(1-(4-(2-hydroxyphenylthio)phenyl)-3-carbamoyl-1H-pyrazol-4-yl)urea] |
| 0.327 | N#CCOc1ccccc1-c1ccc(-n2cc(NC(N)=O)c(C(N)=O)n2)cc1Cl [Example 224, 4-[(aminocarbonyl)amino]-1-[2-chloro-2′-(cyanomethoxy)-1,1′-biphenyl-4-yl]-1H-pyrazole-3-carboxamide] |
| 0.326 | NC(=O)Nc1cn(-c2ccc([S+]([O-])c3ccc(F)cc3)cc2)nc1C(N)=O (stereo not shown) [Example 200, 1-(1-(4-(4-fluorophenylsulfinyl)phenyl)-3-carbamoyl-1H-pyrazol-4-yl)urea] |
| 0.175 | NC(=O)Nc1cn(-c2ccc3ccccc3c2)nc1C(N)=O [Example 219, 4-[(aminocarbonyl)amino]-1-(2-naphthyl)-1H-pyrazole-3-carboxamide] |
| 0.159 | CC(C)c1ccc(-n2cc(NC(N)=O)c(C(N)=O)n2)cc1 [Example 216, 4-[(aminocarbonyl)amino]-1-(4-isopropylphenyl)-1H-pyrazole-3-carboxamide] |
| 0.153 | NC(=O)Nc1cn(-c2ccc(S(=O)(=O)c3cccc(F)c3)cc2)nc1C(N)=O [Example 203, 1-(1-(4-(3-fluorophenylsulfonyl)phenyl)-3-carbamoyl-1H-pyrazol-4-yl)urea] |
| 0.13 | NC(=O)Nc1cn(-c2ccc(-c3ccc(C(N)=O)c(F)c3)cc2)nc1C(N)=O [Example 183, 4-[(aminocarbonyl)amino]-1-[4′-(aminocarbonyl)-3′-fluoro-1,1′-biphenyl-4-yl]-1H-pyrazole-3-carboxamide] |
| 0.0514 | NC(=O)Nc1cn(-c2ccc(Sc3ccncc3)cc2)nc1C(N)=O [Example 206, 1-(3-carbamoyl-1-(4-(pyridin-4-ylthio)phenyl)-1H-pyrazol-4-yl)urea] |
